Data taken from patent US9610359B2, “Methods and compositions related to annexin 1-binding compounds” (Burnham Institute for Medical Research, priority 2009, dated 2017).
Entries after “also recorded” stand apart in the source; their conditions may differ. Residues, ends and D or L forms follow the SMILES beside them. No end group written: not given here.

What was measured:
[1] = body weights, blood cell counts and blood chemistry of treated nude mice; assay type: in vivo, mouse; details: daily injection for 10 days, versus no drug injection
Description: FIGS. 15A, 15B and 15C show body weights (A), blood cell counts (B), and blood chemistry (C) of the nude mice treated with IF7C(RR)-SN38 and RQ7C(RR)-SN38 daily injection for 10 days.

Anxa1-His6 protein [2] = target: T1, Anxa1-His6 protein (Homo sapiens, UniProt P04083); assay: in vitro plate assay for binding to recombinant Anxa1-His6 protein; details: 4 μg/ml, Tris-HCl pH7.4, 1 mM CaCl2, 0.05% Tween 20
T1 construct: Full-length cDNA encoding Anxa1 was obtained from Invitrogen (Carlsbad, Calif.) and subcloned into pET29a vector; His6 (C); made in house; host or cells: bacteria (pET29a vector, Novagen)
T1 sequence (P04083 1-346): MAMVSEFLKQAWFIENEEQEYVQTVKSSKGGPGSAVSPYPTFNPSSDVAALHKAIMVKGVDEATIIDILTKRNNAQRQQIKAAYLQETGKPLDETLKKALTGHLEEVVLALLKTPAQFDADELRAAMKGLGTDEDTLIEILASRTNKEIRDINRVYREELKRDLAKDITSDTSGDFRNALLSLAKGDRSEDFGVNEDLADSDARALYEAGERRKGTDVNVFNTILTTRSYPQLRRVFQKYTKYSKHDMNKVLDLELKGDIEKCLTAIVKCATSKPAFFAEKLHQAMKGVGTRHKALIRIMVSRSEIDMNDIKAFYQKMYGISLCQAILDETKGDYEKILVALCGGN
Description: (§1) FIGS. 1A-1H show the essential role of annexin 1 (Anxa1) in tumor growth and identification of a peptide sequence with tumor vasculature targeting activity in vivo. A and B. Growth of B16 tumors subcutaneously injected into Anxa1(+/−) and Anxa1(−/−) mutant mice. C. Histology of B16 tumors produced in Anxa1(+/−) and Anxa1(−/−) mice. Each scale bar represents 2.00 mm. D. Immunohistochemistry of B16 tumors for CD31 showing endothelial cells and vasculature. Each scale bar represents 200 μm. E. In vivo phage targeting in B16 tumor-bearing mice. Numbers of transformed colonies recovered from the tumor or lung were determined. […] F. In vivo tumor and organ targeting activity of IFLLWQR (SEQ ID NO:2) displaying phage. Phage was injected into B16 tumor bearing mice pre-injected with anti-Anxa1 antibody or with control rabbit IgG. G. In vitro plate assay for binding of IF7-A488 (upper line) and control RQ7-A488C (lower line) to recombinant […] protein produced by bacteria. H. Effect of IF7 (upper line) and control RQ7 (lower line) on binding of FITC-labeled polyacrylamide-LeA oligosaccharide to Anxa1-His6 protein.
(§2) Full-length cDNA encoding Anxa1 was obtained from Invitrogen (Carlsbad, Calif.) and subcloned into pET29a vector (Novagen) to produce an […] fusion protein. […] After washing the plate, fluorescence was measured by a Molecular Devices Analyst HT plate reader. […]

[3] = tested on: Lewis lung carcinoma (LLC) tumors; assay: in vivo imaging of tumor targeting in dorsal skinfold chamber; design: species or system mouse; details: for vascular staining in tumor tissue sections: 20 min after injection
Experimental: (A) Lewis lung carcinoma (LLC) tumors were allowed to vascularize for 3 days in dorsal skinfold chamber window in nude mice. Mice were injected with 100 μl of 50 μM IF7-A488 (row a) or RQ7-A488 (row b) in 5% glucose in water. IF7-A488 was also injected to tumor-bearing mice pre-injected with rabbit IgG (row c) or with rabbit anti-Anxa1 antibody (row d). Fluorescence signals were monitored under a fluorescence microscope up to 40 min post-injection. From left: bright field before injection, and fluorescence at 0, 5, 20 min after injection. Far right, the boundary of tumor and stroma at 20 min (Scale bar=500 μm). (B) Quantitative analysis of fluorescence during the course of the analysis shown in A. The line with the highest signal at 10 minutes represents IF&-A488. The line with the second highest signal at 10 minutes represents the control IgG. The line with the third highest signal at 10 minutes represents Anxa-1 antibody. The line with the lowest signal at 10 minutes represents RQ7-A488. Intensity of fluorescence was determined by Image J program. Error bars represent SD (n=3). Asterisks show statistical significance or p<0.0001, t test. (C) Fluorescence micrographs of tumor sections 20 min after injection with IF7-A488 and RQ7-A488. From left: IF7-A488, DAPI, merged, and bright field. […] Experiments were repeated 3 times, and representative results are shown. Arrows indicate fluorescence. (D) Fluorescence remained in circulation in mice with or without subcutaneous B16 tumors. IF7-A488 was injected intravenously through the tail vein, and fluorescence remaining in circulation was measured. Upper line represents “without tumor”, middle line represents “with 3 days tumor”, and bottom line represents “with 6 days tumor.” Error bars represent SD (n=3).
A Lewis lung carcinoma (LLC) tumor was produced in a donor nude mouse by subcutaneous injection, and small piece of tumor (less than 1 mm^3) was transplanted to a dorsal skinfold chamber in a recipient nude mouse (8-10 weeks female Balb/c nude) as described (Lehr et al., Am J Pathol 1993; 143:1055-62; Oh et al., Nat Biotechnol 2007; 25:327-37). Three days later, the mouse was anesthetized by peritoneal injection of 1.25% 2,2,2-Tribromoethanol ([…]). IF7-A488 or RQ7-A488 (100 μl; […] in 5% glucose solution) was injected through the tail vein. Intravital Alexa 488 signals in the tumor were detected and recorded by a Zeiss Axioplan fluorescence microscope and a digital camera system (DP70 and DP controller, Olympus). For inhibition assays, rabbit anti-Anxa1 antibody (H-65, Santa Cruz) or rabbit IgG (20 μg IgG) was injected 15 minutes prior to IF7-A488 injection. Signal intensity in the tumor from 0 min to 40 min was measured by Image J (NIH, Maryland). After 10 min, irradiation of specimens by a UV lamp was limited only to times when photos were taken to avoid fluorescence bleaching. The tumor was isolated from the dorsal skin folder chamber, fixed with 4% paraformaldehyde at room temperature for 15 min, immersed in O.C.T compound, and cryosections were made. Frozen sections were overlaid with Vectashield containing DAPI (Vector laboratories) and examined under a Zeiss Axioplan fluorescence microscope.

[4] = fluorescence remaining in circulation after intravenous injection; assay type: in vivo, mouse
Experimental: (A) Lewis lung carcinoma (LLC) tumors were allowed to vascularize for 3 days in dorsal skinfold chamber window in nude mice. Mice were injected with 100 μl of 50 μM IF7-A488 (row a) or RQ7-A488 (row b) in 5% glucose in water. IF7-A488 was also injected to tumor-bearing mice pre-injected with rabbit IgG (row c) or with rabbit anti-Anxa1 antibody (row d). Fluorescence signals were monitored under a fluorescence microscope up to 40 min post-injection. From left: bright field before injection, and fluorescence at 0, 5, 20 min after injection. Far right, the boundary of tumor and stroma at 20 min (Scale bar=500 μm). (B) Quantitative analysis of fluorescence during the course of the analysis shown in A. The line with the highest signal at 10 minutes represents IF&-A488. The line with the second highest signal at 10 minutes represents the control IgG. The line with the third highest signal at 10 minutes represents Anxa-1 antibody. The line with the lowest signal at 10 minutes represents RQ7-A488. Intensity of fluorescence was determined by Image J program. […] (C) Fluorescence micrographs of tumor sections 20 min after injection with IF7-A488 and RQ7-A488. […] Arrows indicate fluorescence. (D) Fluorescence remained in circulation in mice with or without subcutaneous B16 tumors. IF7-A488 was injected intravenously through the tail vein, and fluorescence remaining in circulation was measured. […]

Anxa1-His6 protein [5] = target: T1, Anxa1-His6 protein; assay: inhibition of binding of FITC-labeled polyacrylamide-LeA oligosaccharide to Anxa1-His6
Description: as §1, §2

Anxa1-His protein = target: T2, Anxa1-His protein (Homo sapiens, UniProt P04083); assay: isothermal titration calorimetry (ITC) with Anxa1-His protein; assay type: binding; details: 23° C., 20 mM Tris pH 7.9, 250 mM NaCl, 1 mM CaCl2, 10% dimethylsulfoxide; average n=4, two Anxa1-His preparations
T2 construct: Full-length cDNA encoding Anxa1 was obtained from Invitrogen (Carlsbad, Calif.) and subcloned into pET29a vector; His6 (C); made in house; host or cells: bacteria (pET29a vector, Novagen)
T2 sequence (P04083 1-346): T1 sequence (P04083 1-346)
Experimental: ITC was performed on a VP-ITC calorimeter from Microcal (Northampton, Mass.). In this analysis IF7K3C peptide or […] (SEQ ID NO:12), in which IF7 was modified by inserted with three lysine residues between IF7 and C to increase solubility in water. Eight μl aliquots of solution containing 1.0 or 1.5 mM were injected into the cell containing 100 or 150 μM Anxa1-His protein. In each experiment 37 injections were made. The experiments were performed at 23° C. in buffer containing 20 mM Tris pH 7.9, 250 mM NaCl, 1 mM CaCl2 and 10% dimethylsulfoxide. Experimental data were analyzed using Microcal Origin software provided by the ITC manufacturer (Microcal, Northampton, Mass.).

[6] = 100 μl of 50 μM, tail vein, nude mice

With “RQ7C(RR)-SN38 (RQWLLFICRR; also: SN-38 conjugate, site not given here)” the blood cell counts [1] was “None of the parameters showed significant differences to the control”, the blood chemistry [1] was “None of the parameters showed significant differences to the control” and the body weights [1] was “None of the parameters showed significant differences to the control”.
In the case of IF7-A488 (IFLLWQRC), the “binding to recombinant Anxa1-His6 protein in plate assay” value (Anxa1-His6 protein [2]) is reported as “binds to recombinant Anxa1-His6 protein”, the “time until fluorescence signals appeared in the tumor” value [3, 6] is reported as “within one minute” and the “time until tumor fluorescence reached a plateau” value [3, 6] is reported as 9 min. The “vascular staining in tumor tissue sections” value [3] was “vascular staining by IF7-A488; also recorded: detected on endothelial cells of tumor vasculature”, the “tumor targeting after prior injection of irrelevant rabbit IgG” value ([3]; IgG 15 minutes prior) was “did not inhibit IF7-A488 tumor targeting” and the “tumor fluorescence signals after prior injection of anti-Anxa1 antibody” value ([3]; antibody 15 minutes prior) was “significantly reduced”. The “time tumor fluorescence remained high” value ([3]; or until the experiment was terminated) was 40 min, the “fluorescence remaining in circulation, mice without tumors” value ([4]; control mice without tumors) was “remained in circulation after an initial surge” and the “fluorescence remaining in circulation, B16-tumor-bearing mice” value ([4]; subcutaneous B16 tumors) was “complete disappearance from the circulation”.
For “RQWLLFI (control peptide) [RQ7, reference compound]”, the “inhibition of fucosylated carbohydrate (LeA) binding to Anxa1” value (Anxa1-His6 protein [5]) was “not by RQ7”.
With “RQ7-A488 (RQWLLFI; also: Alexa 488 conjugate, site not given here) [reference compound]” the “binding to recombinant Anxa1-His6 protein in plate assay” value (Anxa1-His6 protein [2]) was “did not bind to Anxa1”, the tumor fluorescence signals [3, 6] was “either not detectable or remained at background levels” and the “vascular staining in tumor tissue sections” value [3] was “not RQ7-A488; also recorded: no RQ7-A488 signal was detected”.
`CC[C@H](C)[C@H](N)C(=O)N[C@@H](Cc1ccccc1)C(=O)N[C@@H](CC(C)C)C(=O)N[C@@H](CC(C)C)C(=O)N[C@@H](Cc1c[nH]c2ccccc12)C(=O)N[C@@H](CCC(N)=O)C(=O)N[C@@H](CCCNC(=N)N)C(=O)N[C@@H](CCCCN)C(=O)N[C@@H](CCCCN)C(=O)N[C@@H](CCCCN)C(=O)N[C@@H](CS)C(=O)O` [IF7K3C] (H-IFLLWQRKKKC-OH; N-terminus and C-terminus assumed) gave a Kd (Anxa1-His protein) of 11 ± 6 µM.
